According to ChEMBL document CHEMBL1128244, “Synthesis, structure-activity relationships, and pharmacological evaluation of pyrrolo[3,2,1-ij]quinoline derivatives: potent histamine and platelet activating factor antagonism and 5-lipoxygenase inhibitory properties. Potential therapeutic application in asthma” (J Med Chem, 1995):

Key:
Cavia porcellus [1] = species on record: Cavia porcellus; assay: Ability to inhibit histamine-induced contractions of isolated guinea pig ileum; format: functional
Rattus norvegicus = species on record: Rattus norvegicus; assay: Inhibition of cutaneous histamine reaction in rats.; format: functional
Oryctolagus cuniculus = species on record: Oryctolagus cuniculus; assay: Test against PAF-induced aggregation of rabbit platelets in vitro; format: functional
[2] = target: T1, Polyunsaturated fatty acid 5-lipoxygenase (Homo sapiens) (UniProt P09917); assay: Inhibitory activity uM; settings: Cavia porcellus; concentration not given here
T1 sequence (whole entry): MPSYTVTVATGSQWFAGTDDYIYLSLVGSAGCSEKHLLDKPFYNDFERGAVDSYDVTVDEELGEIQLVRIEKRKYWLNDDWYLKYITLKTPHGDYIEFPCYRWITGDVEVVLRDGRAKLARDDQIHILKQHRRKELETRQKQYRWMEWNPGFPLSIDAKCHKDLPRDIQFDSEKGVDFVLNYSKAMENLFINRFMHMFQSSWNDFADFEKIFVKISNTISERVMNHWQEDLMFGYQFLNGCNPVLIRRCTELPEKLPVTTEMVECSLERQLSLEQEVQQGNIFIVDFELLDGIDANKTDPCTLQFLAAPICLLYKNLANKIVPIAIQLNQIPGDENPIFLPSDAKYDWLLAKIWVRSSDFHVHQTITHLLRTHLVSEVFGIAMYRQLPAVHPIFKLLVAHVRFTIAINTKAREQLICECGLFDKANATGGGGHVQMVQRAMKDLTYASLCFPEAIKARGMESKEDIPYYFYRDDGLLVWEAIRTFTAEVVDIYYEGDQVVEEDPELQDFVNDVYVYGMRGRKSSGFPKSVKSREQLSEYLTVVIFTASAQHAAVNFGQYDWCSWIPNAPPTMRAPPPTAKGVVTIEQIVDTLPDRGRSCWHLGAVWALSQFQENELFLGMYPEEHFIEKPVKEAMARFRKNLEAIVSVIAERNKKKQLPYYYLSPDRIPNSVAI

Cavia porcellus [3] = species on record: Cavia porcellus; assay: Ability to inhibit histamine-induced contractions of isolated guinea pig ileum at 10e-5 M; format: functional

Row | Compound | IC50 (Cavia porcellus [1]) | ED50 (Rattus norvegicus) | IC50 (Oryctolagus cuniculus) | inhibition [2] | inhibition at 10 µM (Cavia porcellus [3]) | IC50 (Cavia porcellus [3])
1 | Cc1ccnc(N2CCN(CCc3c(C)n4c5c(cc(CC(C)C)cc35)CCC4)CC2)c1 | 800 nM | 5.1 µmol/kg | 4300 nM | 20% |  | 
2 | Cc1c(CCN2CCN(c3ccc(Br)cn3)CC2)c2cccc3c2n1CCC3 | 990 nM |  | > 100000 nM |  |  | 
3 | Cc1c(CCN2CCC(C(=O)c3ccc(F)cc3)CC2)c2cccc3c2n1CCC3 | 490 nM |  | > 100000 nM |  |  | 
4 | COc1cc2c3c(c1)c(CCN1CCN(c4cc(C)ccn4)CC1)c(C)n3CCC2 | 30 nM | 0.7 µmol/kg | 6200 nM | 15% |  | 
5 | Cc1c(CCN2CCN(c3ccccn3)CC2)c2cccc3c2n1CCC3 | 65 nM |  | 40000 nM |  |  | 
6 | Cc1ccnc(N2CCN(CCc3c(-c4ccccc4)n4c5c(cccc35)CCC4)CC2)c1 |  |  | 4200 nM |  | 24% | 
7 | Cc1ccnc(N2CCN(CCc3c(-c4ccc(Cl)cc4)n4c5c(cccc35)CCC4)CC2)c1 |  |  | 3300 nM |  | 6% | 
8 | Cc1c(CCN2CCN(c3ccc(F)c(Cl)c3)CC2)c2cccc3c2n1CCC3 | 510 nM |  | > 100000 nM |  |  | 
9 | Cc1ccnc(N2CCN(CCc3c(-c4ccc(O)cc4)n4c5c(cccc35)CCC4)CC2)c1 |  |  | 2000 nM |  | 14% | 
10 | Cc1ccnc(N2CCN(CCc3c(Cc4ccccc4)n4c5c(cccc35)CCC4)CC2)c1 | 2900 nM |  | 22000 nM |  |  | 
11 | Cc1ccnc(N2CCN(CCc3c(C)n4c5c(cccc35)CCC4C)CC2)c1 (stereo not drawn) | 33 nM | 2.6 µmol/kg | 6900 nM | 19% |  | 
12 | Cc1ccnc(N2CCN(CCc3cn4c5c(cccc35)CCC4)CC2)c1 | 63 nM |  | 31000 nM |  |  | 
13 | Cc1ccnc(N2CCN(CCc3c(C)n4c5c(cc(C(=O)C(C)(C)C)cc35)CCC4)CC2)c1 | 89 nM | 3.3 µmol/kg | 5900 nM | 22% |  | 
14 | Cc1ccnc(N2CCN(CCCc3c(C)n4c5c(cccc35)CCC4)CC2)c1 | 1800 nM |  | 32000 nM |  |  | 
15 | CCCCCCC(=O)c1cc2c3c(c1)c(CCN1CCN(c4cc(C)ccn4)CC1)c(C)n3CCC2 | 1200 nM |  | 2400 nM |  |  | 
16 | Cc1ccnc(N2CCN(CCc3c(C)n4c5c(cccc35)CCC4C3CCCCC3)CC2)c1 (stereo not drawn) |  |  | 25000 nM |  | 50% | 
17 | Cc1cccnc1N1CCN(CCc2c(C)n3c4c(cccc24)CCC3)CC1 |  |  | 67000 nM |  | 7% | 
18 | Cc1c(CCN2CCN(c3ccc(F)cc3)CC2)c2cccc3c2n1CCC3 | 76 nM |  | > 100000 nM |  |  | 
19 | Cc1ccnc(N2CCN(CCc3c(C)n4c5c(cc(CC6CCCCC6)cc35)CCC4)CC2)c1 |  |  | 39000 nM |  | 50% | 
20 | Cc1c(CCCN2CCN(c3ccc(F)cc3)CC2)c2cccc3c2n1CCC3 | 1900 nM |  | > 100000 nM |  |  | 
21 | COc1ccc(-c2c(CCN3CCN(c4cc(C)ccn4)CC3)c3cccc4c3n2CCC4)cc1 |  |  | 600 nM |  | 15% | 
22 | Cc1ccnc(N2CCN(CCc3c(-c4ccc(F)cc4)n4c5c(cccc35)CCC4)CC2)c1 |  |  | 2000 nM |  | 3% | 
23 | COc1ccccc1N1CCN(CCc2c(C)n3c4c(cccc24)CCC3)CC1 | 250 nM |  | 82000 nM |  |  | 
24 | Cc1ccnc(N2CCN(CCc3c(C)n4c5c(cc(C(=O)c6ccccc6)cc35)CCC4)CC2)c1 | 290 nM |  | 800 nM |  |  | 
25 | CC(=O)c1cc2c3c(c1)c(CCN1CCN(c4cc(C)ccn4)CC1)c(C)n3CCC2 | 19 nM | 2 µmol/kg | 7500 nM | 48% |  | 
26 | CC(=O)Oc1cc2c3c(c1)c(CCN1CCN(c4cc(C)ccn4)CC1)c(C)n3CCC2 | 23 nM |  |  |  |  | 

Row | Compound | IC50 (Cavia porcellus [1]) | ED50 (Rattus norvegicus) | IC50 (Oryctolagus cuniculus) | inhibition [2] | inhibition at 10 µM (Cavia porcellus [3]) | IC50 (Cavia porcellus [3])
27 | Cc1ccnc(N2CCN(CCc3c(C)n4c5c(cc(Cc6ccccc6)cc35)CCC4)CC2)c1 | 2400 nM |  | 2800 nM |  |  | 
28 | CCCCC1CCc2cc(C(=O)C(C)C)cc3c(CCN4CCN(c5cc(C)ccn5)CC4)c(C)n1c23 (stereo not drawn) | 400 nM | 3.3 µmol/kg | 2000 nM | 50% |  | 
29 | CC(C)=Cc1cc2c3c(c1)c(CCN1CCN(c4cc(C)ccn4)CC1)c(C)n3CCC2 | 140 nM | 4.9 µmol/kg | 22000 nM | 41% |  | 
30 | Cc1ccnc(N2CCN(CCc3c(C)n4c5c(cc(C(=O)C6CCCCC6)cc35)CCC4)CC2)c1 | 250 nM | 2.9 µmol/kg | 2000 nM | 68% |  | 
31 | Cc1ccnc(N2CCN(C(=O)Cc3c(C)n4c5c(cccc35)CCC4)CC2)c1 | 5900 nM |  | 9600 nM |  |  | 
32 | Cc1ccnc(N2CCN(CCc3c(C)n4c5c(cc(O)cc35)CCC4)CC2)c1 | 21 nM | 6 µmol/kg | 39000 nM |  |  | 
33 | O=C(O)COCCN1CCN(C(c2ccccc2)c2ccc(Cl)cc2)CC1 (stereo not drawn) [CETIRIZINE] | 380 nM |  | > 100000 nM |  |  | 
34 | Cc1c(CC(=O)N2CCN(c3ccc(F)cc3)CC2)c2cccc3c2n1CCC3 | 7100 nM |  | 44000 nM |  |  | 
35 | Cc1ccnc(N2CCN(CCc3c(C)n4c5c(cc(C(=O)/C=C/c6ccccc6)cc35)CCC4)CC2)c1 | 190 nM |  |  |  |  | 
36 | COc1ccc(CN(CCN(C)C)c2ccccn2)cc1 [PYRILAMINE] | 17 nM |  | > 100000 nM |  |  | 
37 | Cc1ccc(N2CCN(C(=O)Cc3c(C)n4c5c(cccc35)CCC4)CC2)nc1 | 8300 nM |  | 42000 nM |  |  | 
38 | CCCCC1CCc2cccc3c(CCN4CCN(c5cc(C)ccn5)CC4)c(C)n1c23 (stereo not drawn) | 980 nM | 2.1 µmol/kg | 4800 nM | 29% |  | 
39 | Cc1ccc(-c2c(CCN3CCN(c4cc(C)ccn4)CC3)c3cccc4c3n2CCC4)cc1 |  |  | 2000 nM |  |  | 20000 nM
40 | COc1ccc(N2CCN(CCc3c(C)n4c5c(cccc35)CCC4)CC2)cc1 |  |  | 82000 nM |  | 9% | 
41 | Cc1c(CCN2CCC(c3ccccc3)CC2)c2cccc3c2n1CCC3 | 450 nM |  | 75000 nM |  |  | 
42 | Cc1cccc(N2CCN(CCc3c(C)n4c5c(cccc35)CCC4)CC2)n1 | 350 nM |  | 47000 nM |  |  | 
43 | Cc1ccnc(N2CCN(CCc3c(C)n4c5c(cc(C)cc35)CCC4)CC2)c1 | 70 nM |  | 9100 nM |  |  | 
44 | Cc1ccnc(N2CCN(CCc3c(C)n4c5c(cc(C(O)C(C)C)cc35)CCC4)CC2)c1 (stereo not drawn) | 110 nM | 2.6 µmol/kg | 4200 nM | 8% |  | 
45 | Cc1ccnc(N2CCN(CCc3c(C)n4c5c(cccc35)CCC4)CC2)c1 | 32 nM | 4 µmol/kg | 2600 nM | 0% |  | 
46 | Cc1ccnc(N2CCN(CCc3c(C)n4c5c(cc(NC(=O)c6ccccc6)cc35)CCC4)CC2)c1 | 86 nM | 3 µmol/kg | > 100000 nM | 40% |  | 
47 | Cc1ccnc(N2CCN(C(=O)CCc3c(C)n4c5c(cccc35)CCC4)CC2)c1 | 1400 nM |  | 20000 nM |  |  | 
48 | Cc1ccnc(N2CCN(CCc3c(C)n4c5c(cccc35)CCC4c3ccccc3)CC2)c1 (stereo not drawn) | 280 nM | 2.9 µmol/kg | 2200 nM | 17% |  | 
49 | CCCCC1CCc2cc(OC)cc3c(CCN4CCN(c5cc(C)ccn5)CC4)c(C)n1c23 (stereo not drawn) | 340 nM | 0.9 µmol/kg | 1400 nM | 50% |  | 
50 | Cc1ccc(N2CCN(CCc3c(C)n4c5c(cccc35)CCC4)CC2)nc1 | 180 nM |  | > 100000 nM |  |  | 
51 | CCCCCCCC1CCc2cccc3c(CCN4CCN(c5cc(C)ccn5)CC4)c(C)n1c23 (stereo not drawn) |  |  |  |  | 50% | 
